In ChEMBL document CHEMBL1201862, “PubChem BioAssay data set” (2004):
Active and inactive are the calls of the source.

What was measured:
[1] = biological target: Melanin-concentrating hormone receptor 1 (Homo sapiens, UniProt Q99705); assay: Late-stage fluorescence-based counterscreen for antagonists of the G-protein coupled receptor 7 (GPR7): cell-based dose response assay to identify antagonists of the melanin-concentrating hormone receptor 1 (MCHR1). [Related pubchem assays (depositor defined):AID1861, AID1880, AID1952, AID2148, AID2251, AID2257, AID485339]; type: functional;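 also: stimulated with 30 nM MCH peptide agonist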
Sequence of Melanin-concentrating hormone receptor 1 (Q99705 whole entry): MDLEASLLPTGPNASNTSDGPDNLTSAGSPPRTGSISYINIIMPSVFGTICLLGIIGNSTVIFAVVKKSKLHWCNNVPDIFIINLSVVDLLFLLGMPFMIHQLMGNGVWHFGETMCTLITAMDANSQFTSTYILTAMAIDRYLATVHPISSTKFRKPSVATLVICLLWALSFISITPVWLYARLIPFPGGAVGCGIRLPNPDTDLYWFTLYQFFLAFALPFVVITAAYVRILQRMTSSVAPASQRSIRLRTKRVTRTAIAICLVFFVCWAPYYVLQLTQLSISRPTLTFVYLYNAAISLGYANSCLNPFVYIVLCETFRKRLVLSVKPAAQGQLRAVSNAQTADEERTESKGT

[2] = biological target: T1, Alkaline phosphatase, tissue-nonspecific isozyme (Homo sapiens, UniProt P05186)
T1 sequence (P05186 whole entry): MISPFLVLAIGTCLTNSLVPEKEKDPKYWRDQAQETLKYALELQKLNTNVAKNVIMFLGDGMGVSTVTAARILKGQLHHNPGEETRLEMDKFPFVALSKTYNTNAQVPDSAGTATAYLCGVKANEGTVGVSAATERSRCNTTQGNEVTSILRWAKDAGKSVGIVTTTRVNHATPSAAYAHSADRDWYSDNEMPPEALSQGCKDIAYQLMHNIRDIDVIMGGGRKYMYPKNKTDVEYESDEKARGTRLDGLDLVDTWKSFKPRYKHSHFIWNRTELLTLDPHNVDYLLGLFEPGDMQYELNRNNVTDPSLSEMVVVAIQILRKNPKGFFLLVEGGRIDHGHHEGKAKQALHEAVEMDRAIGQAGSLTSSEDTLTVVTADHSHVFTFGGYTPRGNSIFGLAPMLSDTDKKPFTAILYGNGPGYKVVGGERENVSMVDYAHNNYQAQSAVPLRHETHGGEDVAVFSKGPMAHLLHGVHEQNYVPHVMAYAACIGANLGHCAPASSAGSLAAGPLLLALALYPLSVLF

[3] = biological target: Glyceraldehyde-3-phosphate dehydrogenase (Homo sapiens, UniProt P04406)
Sequence of Glyceraldehyde-3-phosphate dehydrogenase (P04406 whole entry): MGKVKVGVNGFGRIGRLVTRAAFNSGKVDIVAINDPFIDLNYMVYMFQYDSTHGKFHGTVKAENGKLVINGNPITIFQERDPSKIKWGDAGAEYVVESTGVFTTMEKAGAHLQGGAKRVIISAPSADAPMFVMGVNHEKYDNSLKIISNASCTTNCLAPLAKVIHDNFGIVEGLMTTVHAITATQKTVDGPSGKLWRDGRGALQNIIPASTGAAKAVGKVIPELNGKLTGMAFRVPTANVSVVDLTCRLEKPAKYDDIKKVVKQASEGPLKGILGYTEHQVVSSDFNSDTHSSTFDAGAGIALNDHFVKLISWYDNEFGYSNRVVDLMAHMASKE

[4] = A Cell Based Assay for the Identification of Probe candidate Compounds with Anti- Venezuelan Equine Encephalitis virus. [Related pubchem assays: 2409, 2419, 1621, 2238, 2405, 2024, 2065, 2402, 2414, 1635, 1650, 2244 ]; type: functional
[5] = A Cell Based Secondary Assay To Explore Cytotoxicity of Compounds that Sensitize Mycobacterium Tuberculosis to Beta-Lactam Antibiotics.; type: functional
[6] = biological target: C-C chemokine receptor type 6 (Homo sapiens, UniProt P51684); assay: CCR6 receptor antagonists, dose response, cell-based, luminescent beta-arrestin readout (AID 504728); type: functional
Beta-galactosidase = Beta-galactosidase (Escherichia coli, UniProt Q8VNN2); assay: beta-galactosidase enzyme inhibitors and activators, dose response, artefact control for CCR6 antagonist project, biochemical, E. coli enzyme, set 3 (AID 504712); type: functional
[7] = biological target: T2, Polyadenylate-binding protein 1 (Homo sapiens, UniProt P11940); assay: PABP1 MLLE–PAM2 interaction inhibitors, dose response, miRNA deadenylation inhibitor project, biochemical, fluorescence polarization, Cy5-PAM2 peptide, secondary (AID 602260); type: functional; details: read-out: IC50_Mean
T2 sequence (P11940 whole entry): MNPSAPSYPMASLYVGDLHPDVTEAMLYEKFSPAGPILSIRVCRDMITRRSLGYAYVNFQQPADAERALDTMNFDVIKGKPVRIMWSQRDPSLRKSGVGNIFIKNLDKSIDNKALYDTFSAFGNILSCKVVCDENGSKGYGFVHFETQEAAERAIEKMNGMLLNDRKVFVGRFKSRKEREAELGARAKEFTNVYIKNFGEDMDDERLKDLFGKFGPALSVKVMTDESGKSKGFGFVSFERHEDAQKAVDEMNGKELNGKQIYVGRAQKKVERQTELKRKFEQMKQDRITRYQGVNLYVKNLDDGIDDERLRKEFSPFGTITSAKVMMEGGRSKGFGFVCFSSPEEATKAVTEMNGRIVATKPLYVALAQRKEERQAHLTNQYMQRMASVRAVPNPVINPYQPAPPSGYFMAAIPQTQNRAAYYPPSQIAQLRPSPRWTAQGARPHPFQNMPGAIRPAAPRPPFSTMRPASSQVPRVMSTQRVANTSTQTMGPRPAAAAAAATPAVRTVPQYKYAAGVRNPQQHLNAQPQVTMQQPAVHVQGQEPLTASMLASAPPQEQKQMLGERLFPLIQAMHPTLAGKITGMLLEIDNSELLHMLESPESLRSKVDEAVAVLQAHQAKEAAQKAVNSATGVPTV

[8] = biological target: T2, Polyadenylate-binding protein 1; assay: PABP1 MLLE–PAM2 binding inhibitor potency, dose response, biochemical, fluorescence polarization, FITC-PAM2 peptide (AID 602259); type: functional; details: read-out: IC50_Mean
Cytochrome P450 2D6 = Cytochrome P450 2D6 (Homo sapiens, UniProt P10635); assay: qHTS Assay for Inhibitors and Substrates of Cytochrome P450 2D6. [Related pubchem assays: 410 ]; type: ADME; details: read-out: Potency
Sequence of Cytochrome P450 2D6 (P10635 whole entry, the tested form may be a part): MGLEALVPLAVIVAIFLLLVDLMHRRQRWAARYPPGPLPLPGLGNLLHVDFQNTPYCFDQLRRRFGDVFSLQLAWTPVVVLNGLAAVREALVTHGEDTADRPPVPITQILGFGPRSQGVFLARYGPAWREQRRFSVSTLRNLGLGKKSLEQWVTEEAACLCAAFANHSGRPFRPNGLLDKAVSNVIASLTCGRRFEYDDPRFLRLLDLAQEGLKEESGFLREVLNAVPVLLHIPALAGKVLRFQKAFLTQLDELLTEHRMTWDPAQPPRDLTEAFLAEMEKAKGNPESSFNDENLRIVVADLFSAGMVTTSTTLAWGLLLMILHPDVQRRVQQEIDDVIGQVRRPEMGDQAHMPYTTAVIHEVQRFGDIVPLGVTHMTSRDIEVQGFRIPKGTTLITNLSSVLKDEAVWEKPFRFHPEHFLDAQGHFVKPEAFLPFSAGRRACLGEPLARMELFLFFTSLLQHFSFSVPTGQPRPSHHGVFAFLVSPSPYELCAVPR

[9] = HIV-1 Env-mediated cell fusion inhibitors, dose response, CCR5-tropic Env (AID 2279); type: functional
[10] = biological target: T3, High affinity choline transporter 1 (Homo sapiens, UniProt Q9GZV3); assay: CHT inhibitors, dose response, cell-based, 5-point CRC, membrane potential dye (AID 504840); type: functional
T3 sequence (Q9GZV3 whole entry): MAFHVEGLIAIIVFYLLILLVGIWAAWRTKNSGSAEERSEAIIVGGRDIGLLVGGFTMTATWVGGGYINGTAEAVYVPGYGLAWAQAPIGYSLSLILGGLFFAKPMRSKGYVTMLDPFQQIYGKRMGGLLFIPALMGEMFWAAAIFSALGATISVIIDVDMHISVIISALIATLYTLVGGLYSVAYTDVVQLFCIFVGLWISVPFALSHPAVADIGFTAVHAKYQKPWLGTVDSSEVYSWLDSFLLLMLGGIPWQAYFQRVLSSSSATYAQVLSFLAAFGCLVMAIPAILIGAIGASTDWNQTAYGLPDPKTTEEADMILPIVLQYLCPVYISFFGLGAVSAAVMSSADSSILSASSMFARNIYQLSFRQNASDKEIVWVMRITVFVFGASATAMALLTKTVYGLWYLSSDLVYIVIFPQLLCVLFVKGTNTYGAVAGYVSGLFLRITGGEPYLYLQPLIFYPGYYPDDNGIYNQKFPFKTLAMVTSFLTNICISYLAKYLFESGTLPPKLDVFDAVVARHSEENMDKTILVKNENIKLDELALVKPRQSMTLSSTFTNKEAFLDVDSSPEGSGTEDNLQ

[11] = biological target: T3, High affinity choline transporter 1; assay: CHT inhibitors, dose response, cell-based, 10-point CRC, membrane potential dye (AID 588401); type: functional;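 also: membrane potential dye fluorescence of choline-evoked depolarization via CHT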
[12] = system: Streptococcus sp. 'group A'; assay: growth inhibition of control SK(-) GAS strain, dose response, counter-screen for streptokinase expression inhibitor project, luminescence, kanamycin, BacTiterGlo, confirmation (AID 1900); type: functional, organism-based
[13] = biological target: T4, Voltage-gated N-type calcium channel alpha-1B subunit/Amyloid beta A4 precursor protein-binding family A member 1 (Homo sapiens, UniProt Q00975+Q02410); type: protein assay
T4 sequence (Q00975 whole entry): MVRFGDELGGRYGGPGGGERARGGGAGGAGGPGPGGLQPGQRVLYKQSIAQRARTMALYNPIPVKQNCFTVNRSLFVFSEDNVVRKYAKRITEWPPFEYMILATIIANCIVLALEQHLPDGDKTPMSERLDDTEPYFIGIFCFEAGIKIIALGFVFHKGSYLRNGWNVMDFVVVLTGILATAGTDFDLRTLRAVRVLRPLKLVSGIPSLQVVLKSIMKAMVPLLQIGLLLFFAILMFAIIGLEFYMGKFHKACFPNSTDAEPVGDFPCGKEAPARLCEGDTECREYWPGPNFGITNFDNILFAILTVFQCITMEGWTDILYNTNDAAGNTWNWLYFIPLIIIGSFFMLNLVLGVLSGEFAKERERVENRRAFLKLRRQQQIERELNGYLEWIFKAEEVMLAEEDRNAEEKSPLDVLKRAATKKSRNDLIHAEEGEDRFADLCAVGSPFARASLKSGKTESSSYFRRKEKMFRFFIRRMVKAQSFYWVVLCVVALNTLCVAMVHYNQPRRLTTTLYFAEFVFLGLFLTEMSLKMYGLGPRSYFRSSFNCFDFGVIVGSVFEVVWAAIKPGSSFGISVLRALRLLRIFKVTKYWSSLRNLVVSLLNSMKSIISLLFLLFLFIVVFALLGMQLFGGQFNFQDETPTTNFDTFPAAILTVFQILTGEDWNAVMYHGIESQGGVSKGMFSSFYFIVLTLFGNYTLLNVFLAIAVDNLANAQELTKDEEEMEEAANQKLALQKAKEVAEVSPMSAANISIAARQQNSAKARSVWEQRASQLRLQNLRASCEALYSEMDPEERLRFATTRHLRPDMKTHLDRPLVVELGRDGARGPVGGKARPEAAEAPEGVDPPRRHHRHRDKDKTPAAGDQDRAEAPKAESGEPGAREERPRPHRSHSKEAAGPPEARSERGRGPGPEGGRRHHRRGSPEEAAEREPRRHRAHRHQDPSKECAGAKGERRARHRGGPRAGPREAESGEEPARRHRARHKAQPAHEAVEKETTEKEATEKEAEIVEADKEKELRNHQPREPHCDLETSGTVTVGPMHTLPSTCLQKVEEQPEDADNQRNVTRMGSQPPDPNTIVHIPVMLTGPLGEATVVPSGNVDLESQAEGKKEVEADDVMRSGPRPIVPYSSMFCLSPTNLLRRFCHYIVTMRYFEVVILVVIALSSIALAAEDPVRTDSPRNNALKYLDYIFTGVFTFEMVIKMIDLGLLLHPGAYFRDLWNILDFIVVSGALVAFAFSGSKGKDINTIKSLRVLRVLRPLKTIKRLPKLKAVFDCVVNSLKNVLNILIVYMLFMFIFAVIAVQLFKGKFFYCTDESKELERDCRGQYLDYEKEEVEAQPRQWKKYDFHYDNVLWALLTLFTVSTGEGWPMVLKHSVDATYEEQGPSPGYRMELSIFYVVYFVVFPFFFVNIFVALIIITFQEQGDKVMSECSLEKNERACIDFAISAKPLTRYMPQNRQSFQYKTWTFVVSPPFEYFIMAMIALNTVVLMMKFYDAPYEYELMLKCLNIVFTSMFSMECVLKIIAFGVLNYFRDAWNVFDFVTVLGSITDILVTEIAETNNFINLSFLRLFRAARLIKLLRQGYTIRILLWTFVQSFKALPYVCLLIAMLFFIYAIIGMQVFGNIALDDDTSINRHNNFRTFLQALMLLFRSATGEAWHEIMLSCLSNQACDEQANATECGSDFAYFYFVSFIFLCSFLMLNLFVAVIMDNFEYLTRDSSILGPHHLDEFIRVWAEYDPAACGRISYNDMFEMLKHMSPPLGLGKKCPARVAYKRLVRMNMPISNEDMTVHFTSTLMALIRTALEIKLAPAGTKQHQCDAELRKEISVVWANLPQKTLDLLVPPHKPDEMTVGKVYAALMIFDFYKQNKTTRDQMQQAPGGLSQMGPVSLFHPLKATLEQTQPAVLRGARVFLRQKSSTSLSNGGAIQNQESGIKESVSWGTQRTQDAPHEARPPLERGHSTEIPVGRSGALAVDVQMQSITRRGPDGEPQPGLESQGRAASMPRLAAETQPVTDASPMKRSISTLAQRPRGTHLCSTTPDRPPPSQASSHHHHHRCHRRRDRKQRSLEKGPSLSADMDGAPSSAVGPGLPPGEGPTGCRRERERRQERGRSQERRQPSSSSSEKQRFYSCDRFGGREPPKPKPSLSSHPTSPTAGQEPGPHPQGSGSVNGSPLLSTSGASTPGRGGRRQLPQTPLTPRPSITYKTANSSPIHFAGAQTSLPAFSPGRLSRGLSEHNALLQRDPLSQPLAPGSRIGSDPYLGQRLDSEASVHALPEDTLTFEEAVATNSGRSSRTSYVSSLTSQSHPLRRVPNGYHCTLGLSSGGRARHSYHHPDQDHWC
T4 sequence (Q02410 whole entry): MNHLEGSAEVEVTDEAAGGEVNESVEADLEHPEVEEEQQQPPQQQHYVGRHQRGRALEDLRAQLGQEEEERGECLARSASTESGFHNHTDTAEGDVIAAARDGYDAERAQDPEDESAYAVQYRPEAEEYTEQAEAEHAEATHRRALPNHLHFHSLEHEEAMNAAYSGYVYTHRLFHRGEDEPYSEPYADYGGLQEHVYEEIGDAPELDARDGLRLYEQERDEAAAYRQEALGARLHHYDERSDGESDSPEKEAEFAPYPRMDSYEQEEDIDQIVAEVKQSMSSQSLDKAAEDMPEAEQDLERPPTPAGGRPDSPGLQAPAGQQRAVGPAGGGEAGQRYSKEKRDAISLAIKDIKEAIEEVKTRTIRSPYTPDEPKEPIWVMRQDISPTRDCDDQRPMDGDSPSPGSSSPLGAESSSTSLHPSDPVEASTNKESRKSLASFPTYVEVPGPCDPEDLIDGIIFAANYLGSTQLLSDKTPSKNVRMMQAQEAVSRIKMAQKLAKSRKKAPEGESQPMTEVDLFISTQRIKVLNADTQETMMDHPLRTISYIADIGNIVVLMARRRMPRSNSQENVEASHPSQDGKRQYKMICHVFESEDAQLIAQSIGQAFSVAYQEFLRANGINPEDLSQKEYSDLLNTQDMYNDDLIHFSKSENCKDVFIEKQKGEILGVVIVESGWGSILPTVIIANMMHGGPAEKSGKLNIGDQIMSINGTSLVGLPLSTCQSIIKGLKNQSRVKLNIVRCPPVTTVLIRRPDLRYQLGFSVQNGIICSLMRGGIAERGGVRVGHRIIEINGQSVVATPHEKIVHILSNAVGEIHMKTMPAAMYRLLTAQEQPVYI

Streptokinase A = biological target: T5, Streptokinase A (Streptococcus pyogenes serotype M1, UniProt P10520); assay: S. pyogenes streptokinase expression inhibitors, potency, dose response, plasminogen activation absorbance, OD405 (AID 1914); type: functional, Streptococcus pyogenes M1 GAS;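 also: secreted streptokinase activity via plasminogen activation per viability signal from cell pellet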
T5 sequence (P10520 whole entry): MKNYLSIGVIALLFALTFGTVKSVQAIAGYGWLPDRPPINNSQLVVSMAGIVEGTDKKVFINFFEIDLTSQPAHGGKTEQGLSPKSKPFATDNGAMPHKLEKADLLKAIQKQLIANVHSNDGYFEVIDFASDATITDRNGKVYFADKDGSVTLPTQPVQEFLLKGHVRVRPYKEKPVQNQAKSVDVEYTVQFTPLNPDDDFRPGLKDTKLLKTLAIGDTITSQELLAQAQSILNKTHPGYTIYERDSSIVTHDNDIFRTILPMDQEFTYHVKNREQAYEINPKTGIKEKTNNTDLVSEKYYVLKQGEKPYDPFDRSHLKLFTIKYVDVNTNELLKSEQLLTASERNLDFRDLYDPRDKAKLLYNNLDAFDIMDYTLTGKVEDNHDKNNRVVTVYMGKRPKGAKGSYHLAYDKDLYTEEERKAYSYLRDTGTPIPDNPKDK

[14] = biological target: T4, Voltage-gated N-type calcium channel alpha-1B subunit/Amyloid beta A4 precursor protein-binding family A member 1; type: protein assay; remark: listed apart in the source
[15] = biological target: Induced myeloid leukemia cell differentiation protein Mcl-1 (Homo sapiens, UniProt Q07820); type: functional
Streptococcus = assay: Group A Streptococcus viability loss, dose response, counter-screen for streptokinase expression inhibitor project, luminescence, BacTiterGlo (AID 1915); type: functional, organism-based;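 also: potency for reduction of bacterial viability or growth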

For COc1ccc(Oc2c(Cl)cnn(-c3cccc(Cl)c3)c2=O)cc1, the IC50 [1] was 10.5 µM (inactive).
With OCCN(CCO)Cc1nc(O)c2c(n1)-c1ccccc1CC21CCCCC1 the EC50 [2] was 76.4 µM (not active).
For COCCNC(=O)c1cc(-c2ccc(Cl)cc2Cl)n[nH]1, the IC50 [3] was > 10 µM (inconclusive).
In the case of COc1ccc(NC(=O)CSc2nc3ccccc3c(=O)n2-c2ccc(F)cc2)cc1, the IC50 [4] is reported as > 66.6 µM (active).
For CCN1C(=O)C(=CNNC(=O)c2ccccc2)C(=O)N(CC)C1=S, the CC50 [5] was > 40 µM (active).
In the case of CCCCC(=O)NC(=S)Nc1ccccc1C(=O)Nc1ccccc1, the IC50 [6] is reported as > 66.6 µM (inactive), the IC50 (Beta-galactosidase) is reported as > 66.6 µM (inactive) and the IC50 [7] is reported as > 66 µM (inactive). The IC50 [8] was > 66 µM (inactive).
With COc1ccc(-n2c(=O)c3ccccc3n(CC(=O)NC3CCCCC3)c2=O)cc1OC the EC50 [2] was > 100 µM (not active).
In the case of CN1CCc2cc3c(cc2[C@@H]1[C@H]1OC(=O)c2c1ccc1c2OCO1)OCO3, the AC50 (Cytochrome P450 2D6) is reported as 10 µM (inconclusive).
In the case of COc1ccc(S(=O)(=O)N(C(=O)c2ccncc2)c2ccc3oc4c(c3c2)CCCC4)cc1, the CC50 [5] is reported as > 40 µM (active).
With O=c1cccc2n1C[C@@H]1C[C@H]2CN2CCCC[C@H]12 the AC50 (Cytochrome P450 2D6) was 25.1 µM (inconclusive).
For CS(=O)(=O)C1=NSC2=NC(=O)/C(=C\c3ccc(OS(=O)(=O)c4ccccc4)cc3)C(=N)N21, the IC50 [9] was 39.3 µM (active), the IC50 [10] was 4.17 µM (active) and the IC50 [11] was 5.01 µM (active).
With COc1ccc(/N=C2\S/C(=C\c3ccc(OC(C)C(=O)O)c(OC)c3)C(=O)N2CCc2c[nH]c3ccccc23)cc1 (stereo not given) the EC50 [12] was 1.86 µM (active), the IC50 [13] was 15.8 µM (active) and the EC50 (Streptokinase A) was > 50 µM (not active). For the same molecule, the IC50 [9] was > 50 µM (active), the IC50 [14] was > 50 µM (inactive) and the IC50 [15] was 7.55 µM (active). For the same molecule, the EC50 (Streptococcus) was 4.41 µM (active).
For CCOc1cc(C)c(Cl)cc1S(=O)(=O)Nc1cccnc1, the IC50 [3] was > 100 µM (not active).
For COc1ccc(Oc2c(Cl)cnn(-c3cccc(C)c3)c2=O)cc1, the IC50 [1] was 5.4 µM (active).
